This note sets out measurements from patent publication US9783532B2, “Molecules having certain pesticidal utilities, and intermediates, compositions, and processes related thereto” (Dow AgroSciences LLC, priority 2013, dated 2017).

As usually defined, the mortality is the share of the test organisms that died.

Test [1] relates to Beet Armyworm (Spodoptera exigua) ("BAW"). Nature of the test: Bioassay on beet armyworm (BAW), 128-well diet tray assay. The test is classed as in vivo. The note with it: for pest or weed control at 50 µg/cm2: activity rating class, read-out: BAW (Biological Results, Insect species); for mortality at 50 µg/cm2: 168 h, 50 μg/cm^2 on artificial diet, second instar BAW larvae, 25° C., five to seven days, average of eight wells, read-out: BAW % Control (or Mortality) rating. On the procedure: (§1) Certain molecules disclosed in this document were tested against BAW and CEW using procedures described in the following examples. In the reporting of the results, the “BAW & CL Rating Table” was used (See Table Section). BIOASSAYS ON BAW
Bioassays on BAW were conducted using a 128-well diet tray assay. one to five second instar BAW larvae were placed in each well (3 mL) of the diet tray that had been previously filled with 1 mL of artificial diet to which 50 μg/cm^2 of the test compound (dissolved in 50 μL of 90:10 acetone-water mixture) had been applied (to each of eight wells) and then allowed to dry. Trays were covered with a clear self-adhesive cover and held at 25° C., 14:10 light-dark for five to seven days. Percent mortality was recorded for the larvae in each well; activity in the eight wells was then averaged. The results are indicated in the table entitled “Table ABC: Biological Results” (See Table Section).

The subject of test [2] is Cabbage Looper (Trichoplusia ni) ("CL"). Put plainly: Bioassay on cabbage looper (CL), 128-well diet tray assay. Type of test: in vivo. The note with it: for pest or weed control at 50 µg/cm2: activity rating class, read-out: CL (Biological Results, Insect species); for mortality at 50 µg/cm2: 168 h, 50 μg/cm^2 on artificial diet, second instar CL larvae, 25° C., five to seven days, average of eight wells, read-out: CL % Control (or Mortality) rating. On the procedure:
as §1
Bioassays on CL were conducted using a 128-well diet tray assay. one to five second instar CL larvae were placed in each well (3 mL) of the diet tray that had been previously filled with 1 mL of artificial diet to which 50 μg/cm^2 of the test compound (dissolved in 50 μL of 90:10 acetone-water mixture) had been applied (to each of eight wells) and then allowed to dry. Trays were covered with a clear self-adhesive cover and held at 25° C., 14:10 light-dark for five to seven days. Percent mortality was recorded for the larvae in each well; activity in the eight wells was then averaged. The results are indicated in the table entitled “Table ABC: Biological Results” (See Table Section).

Like-named read-outs stand apart in the source and are kept apart here.

With `Cc1ccc(NC(=S)NC(=O)NCCCc2cccc(-c3ncn(-c4ccc(OC(F)(F)F)cc4)n3)c2)c(C(C)C)c1` [PC128, 1-[(2-isopropyl-4-methyl-phenyl)carbamothioyl]-3-[3-[3-[1-[4-(trifluoromethoxy)phenyl]-1H-1,2,4-triazol-3-yl]phenyl]propyl]urea], the pest or weed control at 50 µg/cm2 in test [1] (Table ABC (PC)) and in test [2] (Table ABC (PC)) was 50 to 100% in each case.

As to `Cc1ccc(C(C)C)c(N2C(=O)CS/C2=N\C(=O)NC2CCCCC2c2ccc(-c3ncn(-c4ccc(OC(F)(F)F)cc4)n3)cc2)c1` (stereo not drawn) [FB15, (Z)-1-(3-(2-isopropyl-5-methylphenyl)-4-oxothiazolidin-2-ylidene)-3-(2-(4-(1-(4-(trifluoromethoxy)phenyl)-1H-1,2,4-triazol-3-yl)phenyl)cyclohexyl)urea], the pest or weed control at 50 µg/cm2 in test [1] (Table ABC (FB)) and in test [2] (Table ABC (FB)) was 50 to 100% in each case.

On to `Cc1ccc(C(C)C)c(N2C(=O)CS/C2=N\C(=O)NCCc2ccc(-c3ncn(-c4ccc(OC(F)(F)F)cc4)n3)cc2F)c1` [FB8, (Z)-1-(2-fluoro-4-(1-(4-(trifluoromethoxy)phenyl)-1H-1,2,4-triazol-3-yl)phenethyl)-3-(3-(2-isopropyl-5-methylphenyl)-4-oxothiazolidin-2-ylidene)urea], for which the pest or weed control at 50 µg/cm2 in test [1] (Table ABC (FB)) and in test [2] (Table ABC (FB)) was 50 to 100% each time.

Take `CCc1ccccc1NC(=S)NC(=O)NCc1cccc(-c2ncn(-c3ccc(OC(F)(F)F)cc3)n2)c1` [FB20, 1-[(2-ethylphenyl)carbamothioyl]-3-[[3-[1-[4-(trifluoromethoxy)phenyl]-1H-1,2,4-triazol-3-yl]phenyl]methyl]urea]: the pest or weed control at 50 µg/cm2 in test [1] (Table ABC (FB)) and in test [2] (Table ABC (FB)) was 50 to 100% throughout.

In the case of `CC(C)c1ccc(Cl)cc1N1C(=O)CS/C1=N\C(=O)NCCCCc1cccc(-c2ncn(-c3ccc(OC(F)(F)F)cc3)n2)c1` [FB39, (Z)-1-(3-(5-chloro-2-isopropylphenyl)-4-oxothiazolidin-2-ylidene)-3-(4-(3-(1-(4-(trifluoromethoxy)phenyl)-1H-1,2,4-triazol-3-yl)phenyl)butyl)urea], the pest or weed control at 50 µg/cm2 in test [1] (Table ABC (FB)) and in test [2] (Table ABC (FB)) was 50 to 100% each time.

With `CC(C)c1cc(F)ccc1NC(=S)NC(=O)NCCCc1cccc(-c2ncn(-c3ccc(OC(F)(F)F)cc3)n2)c1` [PC129, 1-[(4-fluoro-2-isopropyl-phenyl)carbamothioyl]-3-[3-[3-[1-[4-(trifluoromethoxy)phenyl]-1H-1,2,4-triazol-3-yl]phenyl]propyl]urea], the pest or weed control at 50 µg/cm2 in test [1] (Table ABC (PC)) and in test [2] (Table ABC (PC)) was 50 to 100% throughout.

`Cc1ccc(C(C)C)c(N2C(=O)C(C)(C)S/C2=N\C(=O)NCCc2ccc(-c3ncn(-c4ccc(OC(F)(F)F)cc4)n3)cc2)c1` [FB68, (Z)-1-(3-(2-isopropyl-5-methylphenyl)-5,5-dimethyl-4-oxothiazolidin-2-ylidene)-3-(4-(1-(4-(trifluoromethoxy)phenyl)-1H-1,2,4-triazol-3-yl)phenethyl)urea]: the pest or weed control at 50 µg/cm2 in test [1] (Table ABC (FB)) and in test [2] (Table ABC (FB)) was 50 to 100% in each case.

Turning to `Cc1ccc(N2C(=O)CS/C2=N\C(=O)NCCc2cccc(-c3ncn(-c4ccc(OC(F)(F)F)cc4)n3)c2)c(C(C)C)c1` [P84, (Z)-1-(3-(2-isopropyl-4-methylphenyl)-4-oxothiazolidin-2-ylidene)-3-(3-(1-(4-(trifluoromethoxy)phenyl)-1H-1,2,4-triazol-3-yl)phenethyl)urea], the mortality at 50 µg/cm2 in test [1] and in test [2] was 50 to 100% each time.

`CCCc1ccc(C)cc1N1C(=O)CS/C1=N\C(=O)NCCCc1ccc(-c2ncn(-c3ccc(OC(F)(F)F)cc3)n2)cc1` [P99, P830, (Z)-1-(3-(5-methyl-2-propylphenyl)-4-oxothiazolidin-2-ylidene)-3-(3-(4-(1-(4-(trifluoromethoxy)phenyl)-1H-1,2,4-triazol-3-yl)phenyl)propyl)urea]: the mortality at 50 µg/cm2 in test [1] and in test [2] was 50 to 100% in each case.
